Results on 3 compounds are retold here after publication PMC12693419, “Design, Synthesis, Biological Evaluation, and In Silico Studies of Novel Multitarget Cinnamic Acid Hybrids” (Molecules, 2025).

The target of series [1] is T1, COX-1 (Homo sapiens, UniProt P23219).
T1 construct: purchased Merck and Sigma-Aldrich
In words: In vitro inhibition of COX-1. The class given is biochemical. From the text:
Enzyme inactivation can occur due to the accumulation of hydroperoxides formed from arachidonic acid or other fatty acid substrates. In order to prevent this in the in vitro experiment used for testing COX inhibition activity of the new molecules, a co-substrate like N,N,N′,N′-tetramethyl-p-phenylenediamine (TMPD) is included, as it undergoes co-oxidation by PGG2. The oxidized TMPD has a maximum absorbance at 590 nm. COX enzymes also depend on heme (Fe^3+-protoporphyrin IX) as a cofactor, which can dissociate during purification. To ensure maximum enzyme activity, heme is added to the reaction mixture during the in vitro assay for ovine COX-2 inhibition and COX-1 inhibition.
Cyclooxygenase (COX) activity was measured using arachidonic acid (AA) as the substrate and N,N,N′,N′-tetramethylphenylenediamine (TMPD) as the co-substrate following the reported method. […] The substrate oxidation was monitored at room temperature by recording the increase in absorbance at 590 nm. Absorbance due to the spontaneous oxidation of TMPD was subtracted from the initial oxidation rate observed in the presence of AA. The inhibitory activity of the test compounds at a concentration of 100 μM was evaluated after a 6-min pre-incubation with the enzyme in the presence of heme and TMPD.

Series [2] is described as follows: In vitro determination of NO release with Griess reagent. The note with it: 100 μM, L-cysteine, pH 7.4, 37 °C, 60 min. The gist of the method: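 Compounds at 100 µM final in phosphate buffer pH 7.4 with 0.5 mM L-cysteine, incubated 60 min at 37 °C, also run without cysteine. Nitrite detected with Griess reagent after 10 min at room temperature by absorbance at 540 nm. Reported as % NO2⁻ (mol/mol) in the presence of L-cysteine.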

Series [3] deals with MCF-7 cells. In words: MTT viability assay. The class given is cell-based. The note with it: Homo sapiens, MCF7, 48 h. The protocol:
(§1) HeLa, MCF-7, U251, U87, MDA-MB-435, and MDA-MB-231 cancer cell lines were maintained in incubators at 37 °C with 5% CO2 in DMEM medium supplemented with 10% (v/v) fetal bovine serum (FBS) and antibiotics/antimycotics. All cell lines used in this study originate from the Laboratory of Biochemistry, Department of Chemistry, Aristotle University of Thessaloniki. They are low-passage, mycoplasma-free cancer cell lines that have been extensively used over the past 25 years in numerous studies across various fields of cancer research, including drug cytotoxicity testing.
(§2) All cell lines tested were seeded in 96-well plates at a concentration of 6 × 10^3 cells per well, except HeLa, which were seeded at 3 × 10^3 cells per well. The day after, cells were exposed to increasing concentrations of the compounds for 48 h. Cell viability was determined using the 3-(4,5-dimethylthiazol-2-yl)-2,5-diphenyltetrazolium bromide (MTT) assay, a colorimetric assessment of cellular metabolic activity as described previously. Absorbance values from treated samples were normalized to those of untreated controls, which were assigned to a 100% viability value.

The subject of series [4] is HeLa cells. In words: MTT viability assay. It counts as cell-based. The conditions noted are these: Homo sapiens, 48 h. The protocol: as §1, §2
Series [5] addresses T2, ovine COX-2 (Ovis aries, UniProt P79208).
T2 sequence (P79208 17-603): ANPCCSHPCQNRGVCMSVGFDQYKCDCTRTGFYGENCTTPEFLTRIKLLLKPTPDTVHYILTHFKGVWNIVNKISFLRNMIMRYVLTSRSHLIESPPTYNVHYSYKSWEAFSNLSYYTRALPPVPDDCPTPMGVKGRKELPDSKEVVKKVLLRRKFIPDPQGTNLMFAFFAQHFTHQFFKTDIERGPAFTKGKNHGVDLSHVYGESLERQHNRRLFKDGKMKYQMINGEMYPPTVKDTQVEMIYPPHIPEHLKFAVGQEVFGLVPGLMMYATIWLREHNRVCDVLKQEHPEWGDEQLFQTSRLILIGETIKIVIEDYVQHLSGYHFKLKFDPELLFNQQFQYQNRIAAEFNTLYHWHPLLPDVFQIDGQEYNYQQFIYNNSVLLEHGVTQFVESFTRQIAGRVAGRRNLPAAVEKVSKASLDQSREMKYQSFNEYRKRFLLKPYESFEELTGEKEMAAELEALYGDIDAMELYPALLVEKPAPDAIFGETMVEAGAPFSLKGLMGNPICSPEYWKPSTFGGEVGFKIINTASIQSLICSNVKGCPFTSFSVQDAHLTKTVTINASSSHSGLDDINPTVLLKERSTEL
In words: In vitro inhibition of ovine cyclooxygenase-2.
Experimental: In order to prevent this in the in vitro experiment used for testing COX inhibition activity of the new molecules, a co-substrate like N,N,N′,N′-tetramethyl-p-phenylenediamine (TMPD) is included, as it undergoes co-oxidation by PGG2. The oxidized TMPD has a maximum absorbance at 590 nm. […] To ensure maximum enzyme activity, heme is added to the reaction mixture during the in vitro assay for ovine COX-2 inhibition and COX-1 inhibition [63].
The in vitro COX-2 inhibitory activity was assessed using arachidonic acid (AA) as a substrate and N,N,N′,N′-tetramethyl-p-phenylenediamine (TMPD) as a co-substrate in a Tris-HCl buffer (pH 8.5), following the reported method [89]. To the test tube, 10 µL of the compound dissolved in DMSO was added to a mixture containing 730 µL of Tris-HCl buffer (pH 8.5), 50 µL of heme, 10 µL of COX-2 enzyme, and 100 µL of TMPD. The absorbance was measured at 590 nm. […] A blank determination was conducted as a negative control.

For series [6], the target named is T3, bovine serum albumin (Bos taurus, UniProt P02769).
T3 construct: bovine serum albumin solution (fraction V); purchased Merck and Sigma-Aldrich; host or cells: bovine serum (fraction V)
T3 sequence (P02769 25-607): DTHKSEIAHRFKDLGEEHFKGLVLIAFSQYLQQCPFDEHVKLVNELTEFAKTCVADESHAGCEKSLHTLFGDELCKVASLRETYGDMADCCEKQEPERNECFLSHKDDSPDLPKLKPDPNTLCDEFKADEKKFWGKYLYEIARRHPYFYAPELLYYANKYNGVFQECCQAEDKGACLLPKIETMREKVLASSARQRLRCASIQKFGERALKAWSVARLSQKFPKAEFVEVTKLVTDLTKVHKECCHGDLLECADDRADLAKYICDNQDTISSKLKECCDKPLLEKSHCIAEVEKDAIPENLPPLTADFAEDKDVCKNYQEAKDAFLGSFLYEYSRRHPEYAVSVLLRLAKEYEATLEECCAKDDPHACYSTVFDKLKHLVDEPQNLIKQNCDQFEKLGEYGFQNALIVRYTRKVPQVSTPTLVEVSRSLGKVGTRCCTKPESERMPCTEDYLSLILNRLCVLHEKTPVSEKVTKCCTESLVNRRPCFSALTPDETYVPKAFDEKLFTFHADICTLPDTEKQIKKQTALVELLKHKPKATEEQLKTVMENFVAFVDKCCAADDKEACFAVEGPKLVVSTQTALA
Kind of series: In vitro inhibition of albumin denaturation. The conditions noted are these: heat denaturation, 60 °C 10 min. An outline of the steps: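 Bovine serum albumin (fraction V, 1% w/v in phosphate buffer, pH 7.4) mixed with test compound, held 15 min at 37 °C, then heated 10 min at 60 °C. After cooling, turbidity read as absorbance at 660 nm against a DMSO blank.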

T1 sequence (P23219 24-599): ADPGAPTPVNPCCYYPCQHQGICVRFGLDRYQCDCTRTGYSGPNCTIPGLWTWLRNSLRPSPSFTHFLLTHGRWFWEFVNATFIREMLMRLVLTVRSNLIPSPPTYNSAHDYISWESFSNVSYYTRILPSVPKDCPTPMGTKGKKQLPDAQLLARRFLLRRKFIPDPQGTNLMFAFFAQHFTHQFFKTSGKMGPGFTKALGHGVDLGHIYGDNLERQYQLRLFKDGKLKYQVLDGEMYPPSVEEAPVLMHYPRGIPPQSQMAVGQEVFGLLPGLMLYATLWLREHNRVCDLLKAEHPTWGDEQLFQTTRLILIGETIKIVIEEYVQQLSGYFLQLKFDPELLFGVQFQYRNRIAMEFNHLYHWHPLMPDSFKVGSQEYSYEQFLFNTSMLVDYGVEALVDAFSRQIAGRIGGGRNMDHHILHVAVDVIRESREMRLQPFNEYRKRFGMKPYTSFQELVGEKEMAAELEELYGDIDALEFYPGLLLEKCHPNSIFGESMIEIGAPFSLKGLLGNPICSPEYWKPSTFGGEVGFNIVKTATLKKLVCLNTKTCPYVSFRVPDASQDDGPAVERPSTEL

With `C/C(=N\O)c1ccc(NC(=O)COC(=O)/C(=C/c2cccs2)c2ccccc2)cc1` [Compound 6i, 2-((4-((E)-1-(Hydroxyimino)ethyl)phenyl)amino)-2-oxoethyl (E)-2-phenyl-3-(thiophen-2-yl)acrylate], 100 µM produced 16.7% inhibition in series [1]. The “%NO2^− Release mol/mol at 100 μΜ” value in series [2] was “no activity and no”. For the same compound, the results for the EC50 in series [3] and in series [4] were 38.3 µM and 36.7 µM, respectively. Further, the midpoint of inhibition in series [5], the IC50, lay at 80 µM. Moreover, the “Albumin (inhibition of albumin denaturation)” value in series [6] is “no”.

For the compound `C/C(=N\O)c1ccc(NC(=O)COC(=O)/C=C/c2cccs2)cc1` [Compound 6c, 2-((4-((E)-1-(Hydroxyimino)ethyl)phenyl)amino)-2-oxoethyl (E)-3-(thiophen-2-yl)acrylate], in series [1], at 100 µM the inhibition was 0%; the “COX-1 at 100 μM (% inhibition)” value is “did not show any inhibition activity and no”. Moreover, the “%NO2^− Release mol/mol at 100 μΜ” value in series [2] was found to be 4%. This compound also showed a concentration giving a half-maximal response (EC50) in series [3] of more than 100 µM. This compound yielded an EC50 in series [4] of 83 µM. The IC50 in series [5] was found to be 35 µM. Moreover, the “Albumin (inhibition of albumin denaturation)” value in series [6] was “no”.

Regarding `O=C(/C=C/c1cc2ccccc2s1)OCc1c(-c2ccccc2)no[n+]1[O-]` [Compound 9e, (E)-3-(((3-(Benzo[b]thiophen-2-yl)acryloyl)oxy)methyl)-4-phenyl-1,2,5-oxadiazole 2-oxide], in series [1], the inhibition at 100 µM stood at 0%; the “COX-1 at 100 μM (% inhibition)” value is “did not show any inhibition activity and no”. For the same compound, the “%NO2^− Release mol/mol at 100 μΜ” value in series [2] is recorded as “no”. A half-maximal effect in series [3] (EC50) was put at 58.5 µM. The response in series [4] was half-maximal at 55.5 µM (EC50). In addition, the IC50 in series [5] came to 8.25 µM. Besides, in series [6], the “Albumin (inhibition of albumin denaturation)” value is “no”.
